Reference: ChEMBL document CHEMBL1148924, “Marine sesquiterpenoids that inhibit the lyase activity of DNA polymerase beta” (J Nat Prod, 2004)
The source made the active and inactive calls. No cut-off for these calls is given here.

How the values were obtained:
A2780 = assay: Cytotoxicity against human A2780 cells; assay type: functional, cell-based
DNA polymerase beta = DNA polymerase beta (Homo sapiens, UniProt P06746); assay: Inhibition of DNA polymerase beta lyase activity
[1] = target: T1, M-phase inducer phosphatase 2 (Homo sapiens) (UniProt P30305); assay: (§1) Inhibition of GST-fused human recombinant Cdc25B2 (275-539) catalytic domain
T1 sequence (whole entry): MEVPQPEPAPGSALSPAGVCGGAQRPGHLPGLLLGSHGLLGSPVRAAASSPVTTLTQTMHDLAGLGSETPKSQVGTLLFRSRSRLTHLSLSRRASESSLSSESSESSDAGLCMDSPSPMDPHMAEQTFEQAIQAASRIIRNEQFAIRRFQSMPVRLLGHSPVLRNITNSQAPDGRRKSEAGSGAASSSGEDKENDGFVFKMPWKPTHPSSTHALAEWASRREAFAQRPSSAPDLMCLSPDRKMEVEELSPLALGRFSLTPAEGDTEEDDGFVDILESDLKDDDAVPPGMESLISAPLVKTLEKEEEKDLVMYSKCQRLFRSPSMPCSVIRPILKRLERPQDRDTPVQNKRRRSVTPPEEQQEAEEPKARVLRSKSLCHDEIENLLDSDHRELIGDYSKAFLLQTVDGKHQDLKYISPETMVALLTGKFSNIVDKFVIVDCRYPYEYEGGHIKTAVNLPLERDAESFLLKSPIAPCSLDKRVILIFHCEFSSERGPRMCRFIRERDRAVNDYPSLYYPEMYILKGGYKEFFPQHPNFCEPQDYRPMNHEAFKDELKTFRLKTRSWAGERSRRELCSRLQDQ

[2] = target: T2, M-phase inducer phosphatase 2 (Homo sapiens, UniProt P30305); assay: as §1
T2 sequence (P30305 whole entry): T1 sequence (whole entry)

| Activity (DNA polymerase beta) | Activity [1] | IC50 (DNA polymerase beta) [µM] | IC50 [2] [µM] | Compound | Activity (A2780) | IC50 (A2780) [µM] |
| --- | --- | --- | --- | --- | --- | --- |
| inactive | inactive |  |  | O=c1ccn([C@H]2C[C@H](O)[C@@H](CO)O2)c(=O)[nH]1 | inactive |  |
| inactive | inactive |  |  | C=C1CCC[C@H]2[C@](C)(Cc3cc(C(=O)OC)ccc3O)[C@@H](C)CC[C@]12C | inactive |  |
|  |  | 45.2 | 92 | C=C1CCC[C@H]2[C@](C)(CC3=C(O)C(=O)C=C(OC)C3=O)[C@@H](C)CC[C@]12C [ILIMAQUINONE] |  | 10.9 |
| inactive | inactive |  |  | C=C1CCC[C@H]2[C@](C)(Cc3cc(C(=O)OC)ccc3OCC=C(C)C)[C@@H](C)CC[C@]12C | inactive |  |
